Consider 14 compounds from patent US20250344734A1, “UNSATURATED FATTY ACIDS AND THEIR USE TO MODIFY TASTE” (Firmenich Incorporated, priority 2022, published 2025).

Format in all cases: cell-based
For one test, the target named is T1, T2R10 (TAS2R10) (Homo sapiens, UniProt Q9NYW0).
T1 construct: expressed in transfected cells; host or cells: cells expressing a promiscuous G protein (e.g., G16g44)
T1 sequence (Q9NYW0 1-307): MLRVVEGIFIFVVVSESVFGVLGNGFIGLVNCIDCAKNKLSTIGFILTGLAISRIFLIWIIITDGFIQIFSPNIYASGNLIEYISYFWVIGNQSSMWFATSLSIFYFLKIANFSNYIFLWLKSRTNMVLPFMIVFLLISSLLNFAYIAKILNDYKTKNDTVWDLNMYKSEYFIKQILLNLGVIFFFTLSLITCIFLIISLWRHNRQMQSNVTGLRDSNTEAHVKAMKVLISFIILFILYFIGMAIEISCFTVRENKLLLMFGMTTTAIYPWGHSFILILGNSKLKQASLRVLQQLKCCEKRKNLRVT
In words: FLIPR calcium assay, block of bitter agonist response, T2R10. Particulars: unsaturated fatty acid concentration of 200 µM, cells stimulated with known bitter agonist, read-out: percentage block of cellular response over baseline, 10. On the procedure: (§1) Cells expressing a promiscuous […] (e.g., G16g44) were transfected with vectors encoding 18 functional bitter receptor cDNAs, with one receptor per transfection. The cells were transfected directly in 384-well format high-density plates and incubated for 28 hours. Later, cells were loaded with the Ca-specific dye Fluo4-AM. After an incubation of 60 minutes, excess dye is washed off, and cells are stimulated with a known bitter agonist for each receptor and various unsaturated fatty acids. Changes in intracellular fluorescence are recorded using a FLIPR instrument. Bitter antagonists and corresponding receptors are identified based on percentage inhibition of agonist's activity on a given receptor.
(§2) The above protocol was carried out using 16 different unsaturated fatty acids. A particular T2R receptor was identified as being antagonized by a particular unsaturated fatty acid if it triggered a >25% block of agonist's cellular response at 200 μM concentration of unsaturated fatty acid. […] Table 2 indicates the sixteen (16) compounds tested by their compound number from Table 1 above. The 18 bitter taste receptors screened are the human bitter taste receptors we named. T2R01 (TAS2R01), T2R03 (TAS2R03), T2R04 (TAS2R04), T2R07 (TAS2R07), T2R08 (TAS2R08), T2R09 (TAS2R09), T2R10 (TAS2R10), T2R13 (TAS2R13), T2R14 (TAS2R14), T2R16 (TAS2R16), T2R54 (TAS2R39, T2R61 (TAS2R43), T2R63 (TA2R20), T2R64 (TAS2R31), T2R65 (TAS2R19), T2R67 (TAS2R50), T2R71 (TAS2R41), and T2R75 (TAS2R46). The corresponding IUPHAR nomenclature for each receptor is given in parenthesis. In Table 2, these receptors are identified by the last two digits. For example, T2R01 is indicated as 01. Table 2 reports the percentage block of cellular response over baseline at an unsaturated fatty acid concentration of 200 µM.

The target of a further test is T2, T2R08 (TAS2R08) (Homo sapiens, UniProt Q9NYW2).
T2 construct: expressed in transfected cells; host or cells: cells expressing a promiscuous G protein (e.g., G16g44)
T2 sequence (Q9NYW2 1-309): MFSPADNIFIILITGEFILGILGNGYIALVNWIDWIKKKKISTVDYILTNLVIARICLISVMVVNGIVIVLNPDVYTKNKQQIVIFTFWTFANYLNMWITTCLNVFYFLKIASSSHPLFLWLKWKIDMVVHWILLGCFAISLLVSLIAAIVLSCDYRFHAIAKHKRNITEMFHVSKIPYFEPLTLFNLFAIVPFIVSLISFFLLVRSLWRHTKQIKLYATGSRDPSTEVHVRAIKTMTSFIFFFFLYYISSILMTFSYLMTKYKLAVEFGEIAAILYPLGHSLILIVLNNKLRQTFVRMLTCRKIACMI
In words: FLIPR calcium assay, block of bitter agonist response, T2R08. As to conditions: unsaturated fatty acid concentration of 200 µM, cells stimulated with known bitter agonist, read-out: percentage block of cellular response over baseline, 08. On the procedure: as §1, §2

The target in the next test is T3, T2R01 (TAS2R01) (Homo sapiens, UniProt Q9NYW7).
T3 construct: expressed in transfected cells; host or cells: cells expressing a promiscuous G protein (e.g., G16g44)
T3 sequence (Q9NYW7 1-299): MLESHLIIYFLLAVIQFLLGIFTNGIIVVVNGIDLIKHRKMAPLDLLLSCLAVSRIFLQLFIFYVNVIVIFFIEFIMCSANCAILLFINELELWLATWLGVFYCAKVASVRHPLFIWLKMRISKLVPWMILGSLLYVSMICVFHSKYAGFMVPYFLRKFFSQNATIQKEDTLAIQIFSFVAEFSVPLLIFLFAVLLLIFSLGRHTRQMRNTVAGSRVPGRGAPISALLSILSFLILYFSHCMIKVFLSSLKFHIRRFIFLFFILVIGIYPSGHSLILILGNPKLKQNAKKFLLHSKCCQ
In words: FLIPR calcium assay, block of bitter agonist response, T2R01. Particulars: unsaturated fatty acid concentration of 200 µM, cells stimulated with known bitter agonist, read-out: percentage block of cellular response over baseline, 01. On the procedure:
as §1, §2

In the test “T2R54 (TAS2R39)” the target is T4, T2R54 (TAS2R39 (Homo sapiens, UniProt P59534)).
T4 construct: expressed in transfected cells; host or cells: cells expressing a promiscuous G protein (e.g., G16g44)
T4 sequence (P59534 1-338): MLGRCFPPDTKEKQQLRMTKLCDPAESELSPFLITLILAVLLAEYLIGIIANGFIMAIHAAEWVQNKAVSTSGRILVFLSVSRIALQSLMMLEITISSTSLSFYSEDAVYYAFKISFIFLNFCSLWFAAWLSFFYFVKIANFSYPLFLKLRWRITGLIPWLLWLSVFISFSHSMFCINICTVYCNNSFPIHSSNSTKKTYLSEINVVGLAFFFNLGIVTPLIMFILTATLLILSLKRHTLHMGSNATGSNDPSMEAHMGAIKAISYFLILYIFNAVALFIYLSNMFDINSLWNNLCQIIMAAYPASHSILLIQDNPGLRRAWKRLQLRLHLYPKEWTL
In words: FLIPR calcium assay, block of bitter agonist response, T2R54. As to conditions: unsaturated fatty acid concentration of 200 µM, cells stimulated with known bitter agonist. On the procedure:
as §1, §2

The target of the next test is T5, T2R75 (TAS2R46) (Homo sapiens, UniProt P59540).
T5 construct: expressed in transfected cells; host or cells: cells expressing a promiscuous G protein (e.g., G16g44)
T5 sequence (P59540 1-309): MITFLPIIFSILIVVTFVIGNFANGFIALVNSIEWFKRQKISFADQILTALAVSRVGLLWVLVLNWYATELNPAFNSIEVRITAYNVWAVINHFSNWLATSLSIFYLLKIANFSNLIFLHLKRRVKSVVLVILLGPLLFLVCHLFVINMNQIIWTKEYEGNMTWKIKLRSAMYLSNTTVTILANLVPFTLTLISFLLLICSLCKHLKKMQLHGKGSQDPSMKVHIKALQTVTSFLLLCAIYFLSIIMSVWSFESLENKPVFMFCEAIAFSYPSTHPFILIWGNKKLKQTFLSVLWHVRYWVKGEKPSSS
In words: FLIPR calcium assay, block of bitter agonist response, T2R75. As to conditions: unsaturated fatty acid concentration of 200 µM, cells stimulated with known bitter agonist. On the procedure:
as §1, §2

The next test addresses T6, T2R14 (TAS2R14) (Homo sapiens, UniProt Q9NYV8).
T6 construct: expressed in transfected cells; host or cells: cells expressing a promiscuous G protein (e.g., G16g44)
T6 sequence (Q9NYV8 1-317): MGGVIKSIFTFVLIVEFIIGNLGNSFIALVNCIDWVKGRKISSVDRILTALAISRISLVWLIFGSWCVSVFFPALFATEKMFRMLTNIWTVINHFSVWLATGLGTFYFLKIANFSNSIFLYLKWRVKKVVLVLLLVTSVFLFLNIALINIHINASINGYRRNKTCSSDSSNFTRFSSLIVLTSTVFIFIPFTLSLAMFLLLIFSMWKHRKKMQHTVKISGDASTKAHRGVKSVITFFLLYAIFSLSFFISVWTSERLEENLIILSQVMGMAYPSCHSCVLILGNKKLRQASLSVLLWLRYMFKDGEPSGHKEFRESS
In words: FLIPR calcium assay, block of bitter agonist response, T2R14. As to conditions: unsaturated fatty acid concentration of 200 µM, cells stimulated with known bitter agonist, read-out: percentage block of cellular response over baseline, 14. On the procedure: as §1, §2

Where only a bound is given, the exact number is not on record here.

Take `C=CCCCCCCC(=O)O` [Compound 116]: the inhibition at 200 µM at T2R10 (TAS2R10) was more than 35%; at T2R08 (TAS2R08), more than 40%; at T2R01 (TAS2R01) it was more than 25%.
Turning to `CCC/C=C/C(=O)O` [Compound 101], the inhibition at 200 µM on T2R10 (TAS2R10) and on T2R08 (TAS2R08) was more than 25% in each case.
As for `C=CCCCCCCCC(=O)O` [Compound 117], the “percentage block of cellular response over baseline, 54” value (“percentage block … 54” for short) at T2R54 (TAS2R39) is more than 80%. Further, the inhibition at 200 µM at T2R10 (TAS2R10) is more than 70%; on T2R08 (TAS2R08) it was more than 55%; at T2R14 (TAS2R14), more than 25%; at T2R01 (TAS2R01), 50%. Moreover, the “percentage block of cellular response over baseline, 75” value (shortened to “percentage block … 75”) on T2R75 (TAS2R46) came to 40%.
For the compound `CCCCCCCCC/C=C/C(=O)O` [Compound 107], the inhibition at 200 µM at T2R10 (TAS2R10) is more than 95%; at T2R08 (TAS2R08) it was more than 70%; at T2R14 (TAS2R14), more than 90%; at T2R01 (TAS2R01), 90%.
For `CCCCCCC/C=C/C(=O)O` [Compound 105] the same measures were more than 95%, more than 55%, 50% and more than 60%.
For `C=CCCCCCCCCCCC(=O)O` [Compound 120] the same measures were more than 95%, 50%, more than 40% and more than 50%.
Consider `CC(C)/C=C/CCCCC(=O)O` [Compound 123], for which the inhibition at 200 µM is more than 30% at T2R10 (TAS2R10), more than 25% at T2R08 (TAS2R08) and more than 25% at T2R14 (TAS2R14).
`CC(C)=CCCC(C)CC(=O)O` (stereo not drawn) [Compound 127]: the “percentage block … 54” value at T2R54 (TAS2R39) is listed as more than 90%. Moreover, the inhibition at 200 µM at T2R10 (TAS2R10) is 50%; at T2R01 (TAS2R01), more than 30%. Moreover, the “percentage block … 75” value at T2R75 (TAS2R46) amounted to 35%.
Regarding `CC(C)=CCCC(C)=CC(=O)O` [Compound 128], the “percentage block … 54” value on T2R54 (TAS2R39) was more than 80%. Moreover, the inhibition at 200 µM at T2R10 (TAS2R10) is more than 90%; on T2R08 (TAS2R08) it was more than 25%; at T2R01 (TAS2R01), 50%. Also, the “percentage block … 75” value on T2R75 (TAS2R46) was 40%.
With `CCCCCC/C=C/C(=O)O` [Compound 104], the inhibition at 200 µM was more than 60% at T2R10 (TAS2R10), more than 40% on T2R08 (TAS2R08), more than 40% at T2R14 (TAS2R14) and more than 35% at T2R01 (TAS2R01).
For the compound `CCCCCC/C=C\CCCC(=O)O` [Compound 124], the inhibition at 200 µM at T2R10 (TAS2R10) is more than 80%; at T2R08 (TAS2R08), more than 60%; at T2R14 (TAS2R14) it was more than 50%; at T2R01 (TAS2R01), 55%.
With `C=CCCCCCC(=O)O` [Compound 115], on T2R10 (TAS2R10), the inhibition at 200 µM is more than 25%.
Take `C=CCCCCCCCCC(=O)O` [Compound 118]: the “percentage block … 54” value at T2R54 (TAS2R39) was more than 80%. The inhibition at 200 µM is more than 75% on T2R10 (TAS2R10), 65% on T2R08 (TAS2R08), more than 65% at T2R14 (TAS2R14) and more than 70% on T2R01 (TAS2R01). In addition, on T2R75 (TAS2R46), the “percentage block … 75” value is on record as 75%.
On to `CCCCCCCC/C=C/C(=O)O` [Compound 106], for which the inhibition at 200 µM is more than 95% on T2R10 (TAS2R10), more than 70% on T2R08 (TAS2R08), 80% at T2R14 (TAS2R14) and 80% at T2R01 (TAS2R01).
